1 compound from patent US20250049787A1, “TREATMENT FOR ACUTE MYELOID LEUKEMIA OR LYMPHOMA” (UNIVERSITY HEALTH NETWORK, priority 2021, published 2025) can be followed below.

In the assay the test system is MV-4-11 xenografts. Nature of the assay: MV-4-11 xenograft model of human AML in CD-1 Nude mice. In kind it is in vivo. The note with it: 0.5 mg/kg IP, QW×4 vs vehicle; p=0.137. Here is the method: Female 8- to 10-week-old CD-1 Nude mice (Charles River Laboratories) with established MV-4-11 xenografts were treated for 21 days (n=8). MV-4-11 cells is a human AML cell line which endogenously expresses a Fms Related Receptor Tyrosine Kinase 3 (FLT3) internal tandem duplication (ITD) mutation. Animal weights were monitored daily, and tumor volume was measured three times per week. Tumor volume (mm^3) was defined as follows, length×width^2/2. Percentage tumor growth inhibition (% TGI) was defined as follows, 100×[1−(TVf,treated−TVi,treated)/(TVf,control−TVi,control)], where TVf is the average tumor volume at the end of study, and TVi is the average tumor volume at the initiation of treatment. In cases where tumor regression occurred, percentage tumor regression was defined as follows, 100×[1−(TVf,treated/TVi,treated)]. At the completion of the study, the mice were sacrificed by an anesthetic overdose. The Institutional Animal Care and Use Committee of the University Health Network approved all animal procedures. […] Data are represented as mean±SEM. p values were calculated using Student's/test.
(In general: A xenograft is tissue or cells of one species grown in another, often human tumour cells in immunodeficient mice.)

SMILES strings stand for the structures.

As for `CC[C@]1(O)C[C@H]2CN(CCc3c([nH]c4ccccc34)[C@@](C(=O)OC)(c3cc4c(cc3OC)N(C=O)[C@H]3[C@@](O)(C(=O)OC)[C@H](OC(C)=O)[C@]5(CC)C=CCN6CC[C@]43[C@@H]65)C2)C1` [Vincristine, reference compound], the “Day 10 TGI (tumor growth inhibition)” value was determined as 62%.
